Source: patent publication US20260021103A1, “IKZF2 AND CK1-ALPHA DEGRADING COMPOUNDS AND USES THEREOF” (President and Fellows of Harvard College, priority 2022, published 2026)

What was measured:
Format in all cases: cell-based
Details in all cases: 24 h, HEK293T GFP reporter
IKZF1 = target: T1, IKZF1 (Homo sapiens, UniProt Q13422+Q96SW2); assay: Flow cytometry for measuring degradation, HEK293T GFP-POI reporter cells (IKZF1)
T1 construct: expressed in transfected cells; host or cells: HEK293T (lentiviral transduction, puromycin selection, FACS sorting)
T1 sequence (Q13422 whole entry): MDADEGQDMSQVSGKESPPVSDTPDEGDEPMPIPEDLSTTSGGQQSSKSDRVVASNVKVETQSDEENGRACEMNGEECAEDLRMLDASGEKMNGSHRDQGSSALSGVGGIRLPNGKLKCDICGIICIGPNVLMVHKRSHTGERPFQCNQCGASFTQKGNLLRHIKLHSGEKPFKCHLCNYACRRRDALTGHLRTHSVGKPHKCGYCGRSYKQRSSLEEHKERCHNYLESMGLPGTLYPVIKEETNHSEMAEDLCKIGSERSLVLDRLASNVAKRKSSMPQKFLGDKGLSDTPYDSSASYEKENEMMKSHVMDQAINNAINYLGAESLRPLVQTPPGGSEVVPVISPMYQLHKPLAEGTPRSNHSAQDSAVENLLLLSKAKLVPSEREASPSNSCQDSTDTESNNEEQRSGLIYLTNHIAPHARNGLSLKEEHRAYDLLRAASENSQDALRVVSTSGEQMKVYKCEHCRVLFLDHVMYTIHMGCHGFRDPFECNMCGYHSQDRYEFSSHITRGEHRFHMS
T1 sequence (Q96SW2 whole entry): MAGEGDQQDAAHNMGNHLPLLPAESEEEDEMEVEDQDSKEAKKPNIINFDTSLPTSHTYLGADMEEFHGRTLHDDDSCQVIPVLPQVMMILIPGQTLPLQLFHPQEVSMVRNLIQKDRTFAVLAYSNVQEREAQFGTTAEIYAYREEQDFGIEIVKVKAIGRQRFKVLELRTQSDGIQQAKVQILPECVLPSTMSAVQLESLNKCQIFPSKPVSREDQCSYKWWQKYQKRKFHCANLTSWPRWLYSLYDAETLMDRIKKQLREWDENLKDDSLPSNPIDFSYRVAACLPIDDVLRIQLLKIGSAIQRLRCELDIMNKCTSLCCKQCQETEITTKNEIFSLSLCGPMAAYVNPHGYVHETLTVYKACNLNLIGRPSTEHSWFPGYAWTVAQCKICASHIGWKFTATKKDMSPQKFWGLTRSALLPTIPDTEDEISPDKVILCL
T1 sequence (Q16531 whole entry partner): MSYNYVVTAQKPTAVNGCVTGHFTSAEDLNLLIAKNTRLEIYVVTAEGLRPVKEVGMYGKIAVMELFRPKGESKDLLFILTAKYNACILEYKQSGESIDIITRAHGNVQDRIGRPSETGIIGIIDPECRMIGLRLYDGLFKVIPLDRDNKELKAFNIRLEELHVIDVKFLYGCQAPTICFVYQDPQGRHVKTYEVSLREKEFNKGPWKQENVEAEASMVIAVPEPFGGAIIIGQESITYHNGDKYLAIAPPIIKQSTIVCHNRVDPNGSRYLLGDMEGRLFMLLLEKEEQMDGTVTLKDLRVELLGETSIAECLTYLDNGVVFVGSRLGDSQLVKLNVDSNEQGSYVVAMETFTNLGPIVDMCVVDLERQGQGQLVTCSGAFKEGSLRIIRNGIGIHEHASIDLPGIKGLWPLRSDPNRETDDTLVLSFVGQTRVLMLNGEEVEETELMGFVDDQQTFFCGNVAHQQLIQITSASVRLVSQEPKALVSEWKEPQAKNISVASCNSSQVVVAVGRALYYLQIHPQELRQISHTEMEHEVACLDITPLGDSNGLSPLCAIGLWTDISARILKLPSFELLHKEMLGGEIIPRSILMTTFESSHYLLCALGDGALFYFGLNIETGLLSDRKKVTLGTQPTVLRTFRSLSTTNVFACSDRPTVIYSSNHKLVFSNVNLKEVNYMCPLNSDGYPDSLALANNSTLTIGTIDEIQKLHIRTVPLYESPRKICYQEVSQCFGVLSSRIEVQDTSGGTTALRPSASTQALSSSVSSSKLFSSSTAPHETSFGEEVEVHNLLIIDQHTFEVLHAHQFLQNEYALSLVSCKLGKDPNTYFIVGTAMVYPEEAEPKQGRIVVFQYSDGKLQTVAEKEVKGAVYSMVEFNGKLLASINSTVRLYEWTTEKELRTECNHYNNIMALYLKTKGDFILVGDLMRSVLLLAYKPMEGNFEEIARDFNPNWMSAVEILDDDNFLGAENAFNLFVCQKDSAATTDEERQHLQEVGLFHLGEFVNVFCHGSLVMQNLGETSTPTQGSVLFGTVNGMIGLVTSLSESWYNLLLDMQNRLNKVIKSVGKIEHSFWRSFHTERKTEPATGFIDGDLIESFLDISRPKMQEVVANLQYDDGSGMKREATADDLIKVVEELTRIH

IKZF2 = target: T2, IKZF2 (Homo sapiens, UniProt Q96SW2+Q9UKS7); assay: Flow cytometry for measuring degradation, HEK293T GFP-POI reporter cells (IKZF2)
T2 construct: expressed in transfected cells; host or cells: HEK293T (lentiviral transduction, puromycin selection, FACS sorting)
T2 sequence (Q9UKS7 whole entry): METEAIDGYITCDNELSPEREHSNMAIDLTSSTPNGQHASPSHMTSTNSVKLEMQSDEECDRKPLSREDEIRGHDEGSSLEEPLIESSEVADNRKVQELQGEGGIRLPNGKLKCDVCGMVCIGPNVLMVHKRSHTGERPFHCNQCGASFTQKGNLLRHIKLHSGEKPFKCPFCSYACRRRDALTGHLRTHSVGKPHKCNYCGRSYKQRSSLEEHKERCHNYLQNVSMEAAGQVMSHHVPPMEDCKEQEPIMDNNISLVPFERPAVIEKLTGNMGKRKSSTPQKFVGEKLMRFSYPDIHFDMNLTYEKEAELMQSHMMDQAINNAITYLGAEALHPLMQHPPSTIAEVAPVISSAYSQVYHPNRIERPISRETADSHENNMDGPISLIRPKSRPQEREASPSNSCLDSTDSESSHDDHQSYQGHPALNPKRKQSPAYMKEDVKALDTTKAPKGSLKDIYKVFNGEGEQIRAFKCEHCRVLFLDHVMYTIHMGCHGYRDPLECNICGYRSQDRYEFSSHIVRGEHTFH
T2 sequence (Q96SW2 whole entry): as the sequence (Q96SW2 whole entry) above
T2 sequence (Q16531 whole entry partner): as the sequence (Q16531 whole entry partner) above

CK1α = target: T3, CK1α (Homo sapiens, UniProt P48729+Q96SW2); assay: Flow cytometry for measuring degradation, HEK293T GFP-POI reporter cells (CK1α)
T3 construct: expressed in transfected cells; host or cells: HEK293T (lentiviral transduction, puromycin selection, FACS sorting)
T3 sequence (P48729 whole entry): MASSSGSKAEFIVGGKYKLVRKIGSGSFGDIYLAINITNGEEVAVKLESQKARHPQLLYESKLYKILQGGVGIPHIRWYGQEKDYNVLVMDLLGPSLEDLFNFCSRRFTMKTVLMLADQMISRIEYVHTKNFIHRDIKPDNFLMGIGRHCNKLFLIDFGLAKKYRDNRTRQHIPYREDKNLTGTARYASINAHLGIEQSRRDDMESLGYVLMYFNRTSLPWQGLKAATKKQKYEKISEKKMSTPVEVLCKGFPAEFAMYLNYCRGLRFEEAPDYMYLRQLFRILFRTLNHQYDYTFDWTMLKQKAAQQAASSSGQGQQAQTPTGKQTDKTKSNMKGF
T3 sequence (Q96SW2 whole entry): as the sequence (Q96SW2 whole entry) above
T3 sequence (Q16531 whole entry partner): as the sequence (Q16531 whole entry partner) above

GSPT1 = GSPT1 (Homo sapiens, UniProt P15170+Q96SW2); assay: Flow cytometry for measuring degradation, HEK293T GFP-POI reporter cells (GSPT1); parameters: expressed in transfected cells; host or cells: HEK293T
Chain of GSPT1 (P15170 whole entry): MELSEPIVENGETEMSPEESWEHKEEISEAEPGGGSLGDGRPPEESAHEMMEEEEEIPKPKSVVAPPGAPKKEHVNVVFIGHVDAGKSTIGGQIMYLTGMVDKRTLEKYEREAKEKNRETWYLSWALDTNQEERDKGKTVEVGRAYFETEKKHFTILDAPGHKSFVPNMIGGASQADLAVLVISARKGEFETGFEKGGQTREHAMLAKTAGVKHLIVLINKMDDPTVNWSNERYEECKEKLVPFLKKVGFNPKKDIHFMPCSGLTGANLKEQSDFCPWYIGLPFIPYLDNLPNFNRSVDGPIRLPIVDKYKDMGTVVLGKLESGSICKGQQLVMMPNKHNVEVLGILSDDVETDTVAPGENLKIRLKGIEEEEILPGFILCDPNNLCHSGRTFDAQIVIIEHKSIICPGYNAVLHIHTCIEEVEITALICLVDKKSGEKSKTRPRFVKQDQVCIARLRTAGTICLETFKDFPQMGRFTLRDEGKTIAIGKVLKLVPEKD
Chain of GSPT1 (Q96SW2 whole entry): as the sequence (Q96SW2 whole entry) above
Chain of GSPT1 (Q16531 whole entry partner): as the sequence (Q16531 whole entry partner) above

| SMILES | IKZF1% degradation at 100 nM (IKZF1) [%] | IKZF1% degradation at 1 μM (IKZF1) [%] | IKZF2% degradation at 100 nM (IKZF2) [%] | IKZF2% degradation at 1 μM (IKZF2) [%] | CK1α % degradation at 100 nM (CK1α) [%] | CK1α % degradation at 1 μM (CK1α) [%] | GSPT1% degradation at 100 nM (GSPT1) [%] | GSPT1% degradation at 1 μM (GSPT1) [%] |
| --- | --- | --- | --- | --- | --- | --- | --- | --- |
| O=C1CCC(N2Cc3cc(NC(=O)c4cccc(C(=O)c5ccccc5)c4)ccc3C2=O)C(=O)N1 (stereo not shown) [DEG-51, 3-benzoyl-N-(2-(2,6-dioxopiperidin-3-yl)-1-oxoisoindolin-5-yl)benzamide] | 59.5 ± 0.2 | 84 ± 0.2 | 82.6 ± 0.3 | 93.9 ± 0 | 63.7 ± 1.1 | 69.8 ± 0.5 | 9 ± 1.6 | 13.7 ± 0.3 |
| O=C1CCC(N2Cc3cc(NC(=O)c4ccc5c(c4)OCCO5)ccc3C2=O)C(=O)N1 (stereo not shown) [DEG-53, N-(2-(2,6-dioxopiperidin-3-yl)-1-oxoisoindolin-5-yl)-2,3-dihydrobenzo[b]dioxine-6-carboxamide] | 9.3 ± 0.8 | 8.8 ± 1.6 | 38.5 ± 0.2 | 76.5 ± 0.7 | 36.2 ± 4.5 | 55.4 ± 3.9 | 5 ± 1.4 | 2.4 ± 0.9 |
| O=C1CCC(N2Cc3cc(NC(=O)c4ccc5c(c4)OCO5)ccc3C2=O)C(=O)N1 (stereo not shown) [DEG-54, N-(2-(2,6-dioxopiperidin-3-yl)-1-oxoisoindolin-5-yl)benzo[d][1,3]dioxole-5-carboxamide] | 7.4 ± 0.8 | 9.7 ± 1.4 | 49.2 ± 0.2 | 84.1 ± 0.3 | 33.5 ± 10 | 57.6 ± 3.5 | 5.2 ± 1.5 | 3.3 ± 1.7 |
| COc1ccc(CCC(=O)Nc2ccc3c(c2)CN(C2CCC(=O)NC2=O)C3=O)cc1 (stereo not shown) [DEG-57] | 81.9 ± 0.7 | 92.5 ± 0.2 | 76.2 ± 0.4 | 88.6 ± 0.2 | 40.3 ± 11.2 | 54.1 ± 2.1 | 11.7 ± 1.3 | 9.9 ± 0.8 |
| COc1ccc2c(CC(=O)Nc3ccc4c(c3)CN(C3CCC(=O)NC3=O)C4=O)cccc2c1 (stereo not shown) [DEG-58, N-(2-(2,6-dioxopipperidin-3-yl)-1-oxoisoindolin-5-yl)-2-(6-methoxynaphthalen-1-yl)acetamide] | 97.7 ± 0.1 | 98.4 ± 0 | 93 ± 0.2 | 95.8 ± 0.1 | 63.4 ± 0.6 | 57 ± 0.1 | 29 ± 1.9 | 41.9 ± 0.8 |
| COc1ccc(/C=C/C(=O)Nc2ccc3c(c2)CN(C2CCC(=O)NC2=O)C3=O)cc1 (stereo not shown) [DEG-60, (E)-N-(2-(2,6-dioxopiperidin-3-yl)-1-oxoisoindolin-5-yl)-3-(4-methoxyphenyl)acrylamide] | 17.6 ± 0.8 | 40.3 ± 0.9 | 74.7 ± 0.3 | 89.5 ± 0.2 | 64.3 ± 1.3 | 68.3 ± 1.2 | 11.6 ± 1.4 | 16.5 ± 2 |
| O=C1CCC(N2Cc3cc(NC(=O)c4ccc5occc5c4)ccc3C2=O)C(=O)N1 (stereo not shown) [DEG-62, N-(2-(2,6-dioxopiperidin-3-yl)-1-oxoisoindolin-5-yl)benzofuran-5-carboxamide] | 6.4 ± 0.3 | 22.3 ± 0.5 | 61.1 ± 0.5 | 90.6 ± 0.1 | 50.2 ± 1.7 | 64.7 ± 0.4 | 2 ± 2.1 | 4.4 ± 1.9 |
| O=C1CCC(N2Cc3cc(NC(=O)C4=COc5ccccc5O4)ccc3C2=O)C(=O)N1 (stereo not shown) [DEG-63, N-(2-(2,6-dioxopiperidin-3-yl)-1-oxoisoindolin-5-yl)benzo[b][1,4]dioxine-2-carboxamide] | 13.4 ± 0.7 | 35.2 ± 0.6 | 70.8 ± 0.6 | 90.7 ± 0.2 | 46.4 ± 1.4 | 60.3 ± 1.2 | −0.1 ± 1.2 | 1.2 ± 0.3 |
| CC(=O)Nc1ccc2c(c1)CN(C1CCC(=O)NC1=O)C2=O (stereo not shown) [DEG-66, N-(2-(2,6-dioxopiperidin-3-yl)-1-oxoisoindolin-5-yl)acetamide] | 4.4 ± 0.8 | 10.9 ± 0.9 | 16.6 ± 0.1 | 48.5 ± 0.2 | 12 ± 1.3 | 25.4 ± 0.8 | 9.9 ± 0.8 | 8.6 ± 0.8 |
| COc1ccc2cccc(CC(=O)Nc3ccc4c(c3)CN(C3CCC(=O)NC3=O)C4=O)c2c1 (stereo not shown) [DEG-68, N-(2-(2,6-dioxopiperidin-3-yl)-1-oxoisoindolin-5-yl)-2-(7-methoxynaphthalen-1-yl)acetamide] | 96.9 ± 0.1 | 97.6 ± 0.1 | 92.2 ± 0.1 | 94.4 ± 0.1 | 59.7 ± 1.2 | 64.4 ± 1.6 | 16.6 ± 1.3 | 21.3 ± 1.8 |

Other lines, results leading:

| IKZF1% degradation at 100 nM (IKZF1) [%] | IKZF1% degradation at 1 μM (IKZF1) [%] | IKZF2% degradation at 100 nM (IKZF2) [%] | IKZF2% degradation at 1 μM (IKZF2) [%] | CK1α % degradation at 100 nM (CK1α) [%] | CK1α % degradation at 1 μM (CK1α) [%] | GSPT1% degradation at 100 nM (GSPT1) [%] | GSPT1% degradation at 1 μM (GSPT1) [%] | SMILES |
| --- | --- | --- | --- | --- | --- | --- | --- | --- |
| 98.6 ± 0.1 | 98.6 ± 0.1 | 89.5 ± 0.1 | 93.2 ± 0.7 | 64.8 ± 0.3 | 65.5 ± 2.3 | 12.5 ± 1.2 | 16.8 ± 1.9 | COc1ccc(Oc2cccc(C(=O)Nc3ccc4c(c3)CN(C3CCC(=O)NC3=O)C4=O)c2)cc1 (stereo not shown) [DEG-69, N-(2-(2,6-dioxopiperidin-3-yl)-1-oxoisoindolin-5-yl)-3-(4-methoxyphenoxy)benzamide] |
| 6.5 ± 1.4 | 16.2 ± 0.6 | 53.6 ± 0.6 | 84.5 ± 0.3 | 44.9 ± 3.4 | 55.8 ± 5.6 | 4.3 ± 1.1 | 4.8 ± 0.4 | COc1ccc(Oc2ccc(C(=O)Nc3ccc4c(c3)CN(C3CCC(=O)NC3=O)C4=O)cc2)cc1 (stereo not shown) [DEG-70, N-(2-(2,6-dioxopiperidin-3-yl)-1-oxoisoindolin-5-yl)-4-(4-methoxyphenoxy)benzamide] |
| 98.5 ± 0.1 | 98.4 ± 0.1 | 93.8 ± 0.5 | 88.5 ± 3 | −190.2 ± 2.8 | −153 ± 2.3 | 63.1 ± 0.4 | 69.4 ± 0.6 | O=C1CCC(N2Cc3cc(NC(=O)Cc4ccc5ccccc5c4)ccc3C2=O)C(=O)N1 (stereo not shown) [DEG-71, N-(2-(2,6-dioxopiperidin-3-yl)-1-oxoisoindolin-5-yl)-2-(naphthalen-2-yl)acetamide] |
| 2.7 ± 1.2 | 6.5 ± 1.2 | 41.8 ± 2 | 82.5 ± 0.9 | 33.2 ± 3.2 | 54.5 ± 3.8 | −1.7 ± 3.4 | −0.9 ± 2.6 | O=C1CCC(N2Cc3cc(NC(=O)c4ccc5ncsc5c4)ccc3C2=O)C(=O)N1 (stereo not shown) [DEG-72, N-(2-(2,6-dioxopiperidin-3-yl)-1-oxoisoindolin-5-yl)benzo[d]thiazole-6-carboxamide] |
